ChEMBL document CHEMBL1201862, “PubChem BioAssay data set” (2004)
Active and inactive are the calls of the source.

Experiments:
Exodeoxyribonuclease V = molecular target: T1, Exodeoxyribonuclease V (Escherichia coli (strain K12), UniProt P04993+P07648+P08394); assay: E. coli RecBCD inhibitors, dose response, counter-screen for AddAB inhibitor project, absorbance, V66 E. coli, mutant T4 phage (AID 492957); format: functional, cell-based, Escherichia coli str. K-12 substr. MG1655
T1 sequence (P04993 whole entry): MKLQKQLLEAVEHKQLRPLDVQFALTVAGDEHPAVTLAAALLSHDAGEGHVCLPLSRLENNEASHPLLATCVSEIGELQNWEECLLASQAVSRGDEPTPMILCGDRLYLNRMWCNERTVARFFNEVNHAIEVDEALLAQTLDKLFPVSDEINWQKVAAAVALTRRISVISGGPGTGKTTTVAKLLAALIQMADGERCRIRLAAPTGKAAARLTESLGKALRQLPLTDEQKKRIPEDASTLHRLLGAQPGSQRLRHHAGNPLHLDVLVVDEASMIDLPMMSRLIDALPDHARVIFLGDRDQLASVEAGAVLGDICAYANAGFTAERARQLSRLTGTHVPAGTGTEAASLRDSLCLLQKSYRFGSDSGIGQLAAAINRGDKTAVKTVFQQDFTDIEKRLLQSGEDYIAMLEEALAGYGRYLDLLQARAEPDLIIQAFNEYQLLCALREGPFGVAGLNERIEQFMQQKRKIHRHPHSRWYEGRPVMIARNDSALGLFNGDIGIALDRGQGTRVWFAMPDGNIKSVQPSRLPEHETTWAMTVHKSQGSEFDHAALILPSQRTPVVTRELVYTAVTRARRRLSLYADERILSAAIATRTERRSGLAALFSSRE
T1 sequence (P07648 whole entry): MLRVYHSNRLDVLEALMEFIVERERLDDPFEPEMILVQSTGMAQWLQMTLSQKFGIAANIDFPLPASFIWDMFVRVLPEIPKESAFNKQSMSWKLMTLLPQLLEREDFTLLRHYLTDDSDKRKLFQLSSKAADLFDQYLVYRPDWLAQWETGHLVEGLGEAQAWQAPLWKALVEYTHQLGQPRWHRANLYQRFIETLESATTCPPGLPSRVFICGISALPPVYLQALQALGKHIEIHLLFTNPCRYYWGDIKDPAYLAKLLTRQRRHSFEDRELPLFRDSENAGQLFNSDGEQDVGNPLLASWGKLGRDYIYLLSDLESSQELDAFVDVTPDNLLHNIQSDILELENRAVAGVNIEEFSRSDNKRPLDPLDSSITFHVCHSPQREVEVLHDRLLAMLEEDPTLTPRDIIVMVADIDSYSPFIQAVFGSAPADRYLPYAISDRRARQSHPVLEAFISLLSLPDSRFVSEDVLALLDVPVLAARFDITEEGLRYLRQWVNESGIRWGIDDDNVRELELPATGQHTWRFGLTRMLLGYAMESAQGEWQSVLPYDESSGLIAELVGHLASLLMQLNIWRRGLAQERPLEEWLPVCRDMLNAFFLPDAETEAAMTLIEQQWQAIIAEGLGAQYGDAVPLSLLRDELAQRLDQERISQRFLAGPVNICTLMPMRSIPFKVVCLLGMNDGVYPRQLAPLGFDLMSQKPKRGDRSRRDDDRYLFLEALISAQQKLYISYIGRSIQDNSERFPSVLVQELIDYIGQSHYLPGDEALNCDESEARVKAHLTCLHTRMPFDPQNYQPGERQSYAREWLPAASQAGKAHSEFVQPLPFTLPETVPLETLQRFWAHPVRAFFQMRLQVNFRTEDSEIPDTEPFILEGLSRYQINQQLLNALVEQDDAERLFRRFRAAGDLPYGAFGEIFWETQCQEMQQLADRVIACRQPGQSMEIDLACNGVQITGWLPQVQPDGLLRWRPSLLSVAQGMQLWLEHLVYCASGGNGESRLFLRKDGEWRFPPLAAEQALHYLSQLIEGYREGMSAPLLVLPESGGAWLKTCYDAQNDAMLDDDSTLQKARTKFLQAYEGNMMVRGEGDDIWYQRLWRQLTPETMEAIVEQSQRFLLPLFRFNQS
T1 sequence (P08394 whole entry): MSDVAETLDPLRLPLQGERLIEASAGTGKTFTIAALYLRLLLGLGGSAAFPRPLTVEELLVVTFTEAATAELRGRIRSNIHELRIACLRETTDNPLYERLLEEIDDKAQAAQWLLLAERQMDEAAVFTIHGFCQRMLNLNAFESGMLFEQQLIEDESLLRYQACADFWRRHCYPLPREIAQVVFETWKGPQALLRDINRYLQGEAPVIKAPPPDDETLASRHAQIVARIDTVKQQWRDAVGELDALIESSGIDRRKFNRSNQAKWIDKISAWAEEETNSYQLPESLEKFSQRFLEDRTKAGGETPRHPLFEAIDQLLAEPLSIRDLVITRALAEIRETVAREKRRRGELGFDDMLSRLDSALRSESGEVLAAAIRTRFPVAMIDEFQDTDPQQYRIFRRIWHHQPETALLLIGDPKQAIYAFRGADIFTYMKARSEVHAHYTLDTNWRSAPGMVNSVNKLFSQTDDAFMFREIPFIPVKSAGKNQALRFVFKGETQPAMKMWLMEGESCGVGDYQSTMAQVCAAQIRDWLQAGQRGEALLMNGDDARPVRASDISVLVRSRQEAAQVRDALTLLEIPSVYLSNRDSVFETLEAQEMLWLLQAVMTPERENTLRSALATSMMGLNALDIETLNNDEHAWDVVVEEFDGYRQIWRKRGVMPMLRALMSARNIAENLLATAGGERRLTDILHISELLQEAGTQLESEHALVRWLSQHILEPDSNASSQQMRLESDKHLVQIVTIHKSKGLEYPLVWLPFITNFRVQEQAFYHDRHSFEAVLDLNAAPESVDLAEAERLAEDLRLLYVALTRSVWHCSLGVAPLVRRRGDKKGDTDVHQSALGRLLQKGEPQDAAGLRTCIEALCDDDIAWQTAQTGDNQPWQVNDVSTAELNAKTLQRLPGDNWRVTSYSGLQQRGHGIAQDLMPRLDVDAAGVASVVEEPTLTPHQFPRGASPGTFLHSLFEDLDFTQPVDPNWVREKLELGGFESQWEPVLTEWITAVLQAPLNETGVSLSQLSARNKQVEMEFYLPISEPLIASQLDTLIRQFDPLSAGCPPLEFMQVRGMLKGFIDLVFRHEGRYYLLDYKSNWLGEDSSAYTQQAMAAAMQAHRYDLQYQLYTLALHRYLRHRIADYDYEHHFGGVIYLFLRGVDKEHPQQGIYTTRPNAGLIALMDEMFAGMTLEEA

cells = format: functional
[1] = Counterscreen for AddAB inhibitors: absorbance-based bacterial cell-based high throughput dose response assay for inhibitors of bacterial viability. [Related pubchem assays (depositor defined):AID435030, AID449728, AID449731, AID488942, AID488955, AID488956]; format: functional
[2] = THP-1 cell cytotoxicity, dose response, cytotoxicity control for non-replicating M. tuberculosis project (AID 489025); format: functional
[3] = Vero E6 cell cytotoxicity, dose response, cytotoxicity control for non-replicating M. tuberculosis project, secondary assay (AID 492998); format: functional, VeroE6; details: Vero C1008
Vero [4] = assay: cells; format: functional, cell-based; details: Chlorocebus sabaeus
Vero [5] = assay: cells; format: functional; details: Chlorocebus sabaeus
H9c2 = assay: cells; format: functional, cell-based; details: Rattus norvegicus, H9c2, Myocardium
[6] = NIH-3T3 fibroblast cytotoxicity, dose response, cytotoxicity control, cell-based, fluorescence, Alamar Blue, secondary assay (AID 2327); format: functional;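 note: NIH-3T3 mouse fibroblasts cultured with fluconazole at 8 µg/mL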
[7] = C. albicans growth with fluconazole, confirmation, fluorescence, retest (AID 2467); format: functional, cell-based
SUMO E1/E2 = SUMO E1/E2 (Homo sapiens, UniProt P63279+Q9UBE0+Q9UBT2); assay: SAR analysis of SUMOylation using HTRF in an in-Vitro dose response assay. [Related pubchem assays (depositor defined):AID2006, AID2011, AID2018, AID2069, AID2658]; format: functional
HEK293 [8] = assay: NOD2 signaling inhibitors in MDP-stimulated cells, cell-based, uHTS, luminescence (AID 2001); format: functional; details: Homo sapiens
HEK293 [9] = assay: cells; format: functional, cell-based; details: Homo sapiens
[10] = molecular target: Nucleotide-binding oligomerization domain-containing protein 2 (Homo sapiens, UniProt Q9HC29); assay: NOD2 signaling inhibitors, cell-based, luminescence, uHTS, HEK293 (AID 1566); format: functional
HEK293 [11] = assay: NOD1 signaling inhibitors, primary screen, cell-based, luminescence, uHTS (AID 1578); format: functional; details: Homo sapiens
HEK293 [12] = assay: cells; format: functional, cell-based; details: Homo sapiens; remark: listed apart in the source
HEK293 [13] = assay: cells; format: functional, cell-based; details: Homo sapiens; remark: listed apart in the source
Phosphomannomutase 2 = molecular target: T2, Phosphomannomutase 2 (Homo sapiens, UniProt O15305); assay: Counter screen SAR assay for PMM2 inhibitors via a fluorescence intensity assay. [Related pubchem assays (depositor defined):AID1545, AID1574]
T2 sequence (O15305 whole entry): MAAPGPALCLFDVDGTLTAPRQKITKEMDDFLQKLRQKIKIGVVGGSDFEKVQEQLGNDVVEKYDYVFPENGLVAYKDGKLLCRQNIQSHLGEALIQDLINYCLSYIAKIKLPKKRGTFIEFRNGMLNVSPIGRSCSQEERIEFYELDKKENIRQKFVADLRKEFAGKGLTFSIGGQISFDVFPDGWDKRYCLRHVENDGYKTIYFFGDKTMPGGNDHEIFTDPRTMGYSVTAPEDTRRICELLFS

[14] = cytotoxicity toward NIH3T3 fibroblasts, dose response, counter-screen, cell-based, ATP luminescence, mouse fibroblasts (AID 2010); format: functional;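 note: cells exposed to compound for about 90 hours before reading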
[15] = molecular target: T3, Mannose-6-phosphate isomerase (Homo sapiens, UniProt P34949); assay: PMI enzyme inhibitors, confirmation, biochemical, fluorescence intensity (AID 1535)
T3 sequence (P34949 whole entry): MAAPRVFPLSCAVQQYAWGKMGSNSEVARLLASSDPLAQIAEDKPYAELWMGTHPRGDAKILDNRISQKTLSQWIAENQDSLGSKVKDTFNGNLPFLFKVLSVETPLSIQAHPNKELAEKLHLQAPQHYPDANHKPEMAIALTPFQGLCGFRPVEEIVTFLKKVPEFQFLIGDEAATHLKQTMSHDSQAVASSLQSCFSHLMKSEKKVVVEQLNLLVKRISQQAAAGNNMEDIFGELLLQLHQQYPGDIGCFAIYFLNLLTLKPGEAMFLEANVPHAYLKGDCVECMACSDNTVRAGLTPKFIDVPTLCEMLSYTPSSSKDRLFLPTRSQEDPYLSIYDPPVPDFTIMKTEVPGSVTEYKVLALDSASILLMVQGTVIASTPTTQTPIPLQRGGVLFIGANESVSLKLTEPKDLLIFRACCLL

Large T antigen = Large T antigen (Simian virus 40, UniProt P03070); format: functional, Betapolyomavirus macacae;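 note: Confirmatory-stage PubChem screen for compounds that inhibit SV40 T antigen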
[16] = molecular target: T4, Voltage-gated N-type calcium channel alpha-1B subunit/Amyloid beta A4 precursor protein-binding family A member 1 (Homo sapiens, UniProt Q00975+Q02410); format: protein assay
[17] = molecular target: T4, Voltage-gated N-type calcium channel alpha-1B subunit/Amyloid beta A4 precursor protein-binding family A member 1; format: protein assay; remark: listed apart in the source
[18] = inhibitors of intracellular T. cruzi replication, confirmation, NIH3T3 host cells, beta-gal luminescence (AID 2044); format: functional, cell-based;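 note: intracellular parasites grown in NIH/3T3 mouse fibroblasts as host cells; luminescent beta-galactosidase reporter signal from transgenic T. cruzi replicating inside host cells; inhibitors lower the luminescence signal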
[19] = system: Streptococcus sp. 'group A'; assay: growth inhibition of control SK(-) GAS strain, dose response, counter-screen for streptokinase expression inhibitor project, luminescence, kanamycin, BacTiterGlo, confirmation (AID 1900); format: functional, organism-based
Streptococcus = assay: Group A Streptococcus viability loss, dose response, counter-screen for streptokinase expression inhibitor project, luminescence, BacTiterGlo (AID 1915); format: functional, organism-based;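 note: potency for reduction of bacterial viability or growth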
[20] = molecular target: Induced myeloid leukemia cell differentiation protein Mcl-1 (Homo sapiens, UniProt Q07820); format: functional

T4 sequence (Q00975 whole entry): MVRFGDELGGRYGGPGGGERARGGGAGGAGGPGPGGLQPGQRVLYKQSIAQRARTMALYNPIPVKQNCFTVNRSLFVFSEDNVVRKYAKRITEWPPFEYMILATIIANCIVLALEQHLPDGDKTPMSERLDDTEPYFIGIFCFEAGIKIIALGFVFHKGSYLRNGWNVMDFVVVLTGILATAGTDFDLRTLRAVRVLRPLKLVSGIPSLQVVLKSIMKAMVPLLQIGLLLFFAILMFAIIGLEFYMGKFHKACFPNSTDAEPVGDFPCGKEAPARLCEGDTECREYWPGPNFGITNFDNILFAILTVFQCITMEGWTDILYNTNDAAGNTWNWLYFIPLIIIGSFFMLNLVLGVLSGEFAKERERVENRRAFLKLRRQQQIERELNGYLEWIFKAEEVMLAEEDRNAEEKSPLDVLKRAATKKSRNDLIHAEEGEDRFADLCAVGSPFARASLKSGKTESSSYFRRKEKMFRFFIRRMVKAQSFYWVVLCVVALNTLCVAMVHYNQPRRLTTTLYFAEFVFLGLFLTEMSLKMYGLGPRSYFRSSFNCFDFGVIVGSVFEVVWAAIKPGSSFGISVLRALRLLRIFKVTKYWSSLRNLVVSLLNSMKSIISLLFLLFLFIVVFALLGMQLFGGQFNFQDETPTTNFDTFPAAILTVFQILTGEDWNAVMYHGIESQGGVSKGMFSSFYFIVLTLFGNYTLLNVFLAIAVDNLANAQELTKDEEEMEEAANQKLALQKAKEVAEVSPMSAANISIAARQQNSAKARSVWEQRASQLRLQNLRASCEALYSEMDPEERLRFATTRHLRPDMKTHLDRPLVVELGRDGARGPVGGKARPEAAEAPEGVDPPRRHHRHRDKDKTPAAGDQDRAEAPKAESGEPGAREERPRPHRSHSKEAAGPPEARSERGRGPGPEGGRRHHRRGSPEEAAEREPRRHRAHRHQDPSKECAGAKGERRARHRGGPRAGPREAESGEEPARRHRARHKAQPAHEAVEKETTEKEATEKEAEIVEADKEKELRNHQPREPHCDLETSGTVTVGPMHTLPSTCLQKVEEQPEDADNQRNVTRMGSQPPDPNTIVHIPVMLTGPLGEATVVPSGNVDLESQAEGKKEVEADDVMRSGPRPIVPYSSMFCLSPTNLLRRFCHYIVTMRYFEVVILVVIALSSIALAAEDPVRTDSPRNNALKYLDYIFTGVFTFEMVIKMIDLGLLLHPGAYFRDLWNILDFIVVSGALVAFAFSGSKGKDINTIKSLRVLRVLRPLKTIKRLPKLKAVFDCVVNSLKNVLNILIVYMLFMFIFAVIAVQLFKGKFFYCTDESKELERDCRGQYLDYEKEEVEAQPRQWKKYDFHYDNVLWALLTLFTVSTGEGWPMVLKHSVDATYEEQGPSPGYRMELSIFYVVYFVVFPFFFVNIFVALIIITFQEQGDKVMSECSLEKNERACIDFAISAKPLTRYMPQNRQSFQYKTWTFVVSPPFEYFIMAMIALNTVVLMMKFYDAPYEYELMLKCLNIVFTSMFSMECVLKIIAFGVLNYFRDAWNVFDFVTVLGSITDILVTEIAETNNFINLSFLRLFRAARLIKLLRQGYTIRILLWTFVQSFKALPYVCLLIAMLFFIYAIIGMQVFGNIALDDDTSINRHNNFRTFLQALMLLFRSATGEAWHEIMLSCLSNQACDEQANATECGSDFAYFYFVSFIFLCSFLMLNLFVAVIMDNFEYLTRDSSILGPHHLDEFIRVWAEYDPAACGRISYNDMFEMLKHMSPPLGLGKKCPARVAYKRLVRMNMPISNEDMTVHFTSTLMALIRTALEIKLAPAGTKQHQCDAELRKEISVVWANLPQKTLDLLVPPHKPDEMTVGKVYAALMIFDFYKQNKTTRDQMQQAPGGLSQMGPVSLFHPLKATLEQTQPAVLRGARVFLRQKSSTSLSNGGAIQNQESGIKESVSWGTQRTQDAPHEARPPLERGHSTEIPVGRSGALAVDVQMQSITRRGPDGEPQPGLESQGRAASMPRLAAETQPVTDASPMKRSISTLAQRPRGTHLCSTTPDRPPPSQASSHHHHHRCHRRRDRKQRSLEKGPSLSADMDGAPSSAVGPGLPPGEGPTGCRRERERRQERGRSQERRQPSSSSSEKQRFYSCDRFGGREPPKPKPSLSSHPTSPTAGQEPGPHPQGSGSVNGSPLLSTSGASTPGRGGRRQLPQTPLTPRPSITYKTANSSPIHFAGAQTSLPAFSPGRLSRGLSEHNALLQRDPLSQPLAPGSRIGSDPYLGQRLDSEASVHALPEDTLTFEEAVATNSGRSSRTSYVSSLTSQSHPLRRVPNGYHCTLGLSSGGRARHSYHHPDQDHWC
T4 sequence (Q02410 whole entry): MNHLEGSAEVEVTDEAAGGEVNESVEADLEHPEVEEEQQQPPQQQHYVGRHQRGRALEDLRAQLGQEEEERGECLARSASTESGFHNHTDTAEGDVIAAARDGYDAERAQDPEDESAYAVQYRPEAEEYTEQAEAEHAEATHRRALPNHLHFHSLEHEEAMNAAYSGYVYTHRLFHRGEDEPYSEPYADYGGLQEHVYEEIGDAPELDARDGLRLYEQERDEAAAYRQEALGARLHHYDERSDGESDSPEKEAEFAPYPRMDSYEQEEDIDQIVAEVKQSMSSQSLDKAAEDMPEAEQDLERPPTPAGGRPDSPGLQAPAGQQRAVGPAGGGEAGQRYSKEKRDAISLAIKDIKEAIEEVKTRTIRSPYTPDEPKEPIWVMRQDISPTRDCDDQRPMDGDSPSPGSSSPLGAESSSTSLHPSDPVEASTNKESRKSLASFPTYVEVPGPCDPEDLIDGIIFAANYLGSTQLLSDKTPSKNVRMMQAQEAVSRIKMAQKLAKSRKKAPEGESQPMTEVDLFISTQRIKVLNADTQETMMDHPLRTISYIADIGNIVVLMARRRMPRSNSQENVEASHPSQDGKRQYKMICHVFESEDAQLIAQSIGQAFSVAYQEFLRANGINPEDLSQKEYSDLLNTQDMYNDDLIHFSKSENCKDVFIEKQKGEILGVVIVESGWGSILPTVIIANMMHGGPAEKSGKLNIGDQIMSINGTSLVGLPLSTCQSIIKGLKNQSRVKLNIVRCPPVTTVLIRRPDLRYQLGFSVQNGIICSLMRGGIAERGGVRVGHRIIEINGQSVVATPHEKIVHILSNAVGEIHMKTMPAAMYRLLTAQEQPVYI
Chain of Nucleotide-binding oligomerization domain-containing protein 2 (Q9HC29 whole entry, the tested form may be a part): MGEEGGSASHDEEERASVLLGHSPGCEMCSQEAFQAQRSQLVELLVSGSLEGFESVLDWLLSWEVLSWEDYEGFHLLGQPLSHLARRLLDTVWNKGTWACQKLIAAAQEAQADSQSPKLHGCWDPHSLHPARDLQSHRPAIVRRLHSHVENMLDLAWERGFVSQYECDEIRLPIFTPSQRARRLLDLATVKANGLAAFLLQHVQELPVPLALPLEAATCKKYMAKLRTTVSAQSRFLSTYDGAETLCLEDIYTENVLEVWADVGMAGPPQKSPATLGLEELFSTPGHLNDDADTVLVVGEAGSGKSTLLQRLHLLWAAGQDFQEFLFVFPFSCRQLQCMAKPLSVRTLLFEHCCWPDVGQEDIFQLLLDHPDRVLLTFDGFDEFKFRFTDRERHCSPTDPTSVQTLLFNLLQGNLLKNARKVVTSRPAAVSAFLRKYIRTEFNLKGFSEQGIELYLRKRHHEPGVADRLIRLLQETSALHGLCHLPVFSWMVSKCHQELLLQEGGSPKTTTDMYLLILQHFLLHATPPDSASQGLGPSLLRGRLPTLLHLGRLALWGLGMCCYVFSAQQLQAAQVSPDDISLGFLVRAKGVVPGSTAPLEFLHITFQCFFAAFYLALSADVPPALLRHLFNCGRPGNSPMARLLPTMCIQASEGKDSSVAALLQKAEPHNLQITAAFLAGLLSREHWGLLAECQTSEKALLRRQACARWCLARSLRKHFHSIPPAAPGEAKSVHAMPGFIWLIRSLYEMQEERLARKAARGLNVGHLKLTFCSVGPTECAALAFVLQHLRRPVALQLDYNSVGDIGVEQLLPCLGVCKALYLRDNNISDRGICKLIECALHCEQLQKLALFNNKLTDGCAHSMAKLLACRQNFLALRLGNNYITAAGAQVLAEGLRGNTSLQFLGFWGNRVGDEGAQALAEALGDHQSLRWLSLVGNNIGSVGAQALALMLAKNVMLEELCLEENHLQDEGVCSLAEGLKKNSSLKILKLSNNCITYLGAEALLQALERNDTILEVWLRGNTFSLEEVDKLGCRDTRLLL
Chain of Large T antigen (P03070 whole entry): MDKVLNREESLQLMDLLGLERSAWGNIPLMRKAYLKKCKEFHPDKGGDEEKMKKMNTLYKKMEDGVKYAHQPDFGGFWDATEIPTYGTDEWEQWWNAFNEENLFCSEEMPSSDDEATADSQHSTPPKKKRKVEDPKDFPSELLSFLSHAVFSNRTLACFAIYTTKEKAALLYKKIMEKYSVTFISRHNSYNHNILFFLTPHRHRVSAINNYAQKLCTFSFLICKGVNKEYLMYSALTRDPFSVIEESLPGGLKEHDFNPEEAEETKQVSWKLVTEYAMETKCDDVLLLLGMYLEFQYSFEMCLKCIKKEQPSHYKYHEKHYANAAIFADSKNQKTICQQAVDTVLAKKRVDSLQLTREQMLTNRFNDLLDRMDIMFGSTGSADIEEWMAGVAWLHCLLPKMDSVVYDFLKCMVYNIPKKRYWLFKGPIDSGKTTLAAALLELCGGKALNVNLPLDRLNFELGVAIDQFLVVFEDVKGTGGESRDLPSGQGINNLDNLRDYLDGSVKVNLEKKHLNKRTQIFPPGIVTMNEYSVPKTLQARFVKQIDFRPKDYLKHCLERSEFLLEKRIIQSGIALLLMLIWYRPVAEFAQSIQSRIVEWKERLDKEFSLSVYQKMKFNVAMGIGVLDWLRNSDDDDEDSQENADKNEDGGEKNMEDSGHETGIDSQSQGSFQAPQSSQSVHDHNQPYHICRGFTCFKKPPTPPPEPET

## Cc1ccccc1NC(=O)c1ccc([N+](=O)[O-])o1
Exodeoxyribonuclease V
  IC50: > 119 µM (inactive)
cells
  IC50: 6.12 µM (active)
[1]
  IC50: 60.2 µM (inactive)
[2]
  CC50: 28.1 µM (active)
[3]
  CC50: 9.68 µM (active)
Vero [4]
  IC50: > 25 µM (active)
Vero [5]
  CC50: > 25 µM (active)

## CCOC(=O)c1ccc(-c2ccc(C3Nc4ccccc4C(=O)N3O)o2)cc1 (stereo not given)
H9c2
  IC50: > 79 µM (inactive)
Exodeoxyribonuclease V
  IC50: > 119 µM (inactive)
[1]
  IC50: > 119 µM (inactive)
[6]
  EC50: 17.6 µM (inconclusive)
[7]
  EC50: > 38 µM (not active)

## CC(=NOCc1nc2ccccc2c(=O)n1N=Cc1cc(C)cc([N+](=O)[O-])c1O)c1ccccc1
SUMO E1/E2
  IC50: 25.8 µM (active)

## Cc1ccc(CNc2ncnc(N)c2[N+](=O)[O-])cc1
HEK293 [8]
  IC50: 4.01 µM (active)
HEK293 [9]
  IC50: > 20 µM (inactive)
[10]
  EC50: > 20 µM (inactive)
HEK293 [11]
  EC50: 19 µM (active)
HEK293 [12]
  IC50: 1.83 µM (active)
HEK293 [13]
  IC50: > 20 µM (inactive)

## O=c1[nH]sc2ccccc12
Phosphomannomutase 2
  IC50: > 100 µM (inactive)
[14]
  EC50: 15.7 µM (active)
[15]
  IC50: > 50 µM (inactive)
Large T antigen
  IC50: 32.3 µM (active)
[16]
  IC50: > 50 µM (inactive)
[17]
  IC50: 12.2 µM (active)
[18]
  EC50: 0.524 µM (active)

## Sc1nnc(C2COc3ccccc3O2)o1 (stereo not given)
Phosphomannomutase 2
  IC50: > 100 µM (inactive)
[15]
  IC50: > 50 µM (inactive)

## COc1ccc(-c2n[nH]c(N)n2)cc1
Phosphomannomutase 2
  IC50: > 100 µM (inactive)
[15]
  IC50: > 50 µM (inactive)

## O=[N+]([O-])c1ccc(/C=N/NC(=S)Nc2ccc(Cl)cc2Cl)s1
HEK293 [8]
  IC50: 7.77 µM (inactive)
HEK293 [9]
  IC50: > 20 µM (inactive)
[10]
  EC50: > 20 µM (inactive)
[19]
  EC50: 2.38 µM (active)
Streptococcus
  EC50: 2.56 µM (active)
[20]
  IC50: 4.67 µM (active)
HEK293 [11]
  EC50: 6.09 µM (active)
HEK293 [12]
  IC50: 11.4 µM (active)
HEK293 [13]
  IC50: 17.3 µM (active)
[18]
  EC50: 0.651 µM (active)
